Measurements as given in patent US20250268829A1, “INHALED ANTIBACTERIAL FORMULATIONS FOR TREATING LUNG INFECTIONS” (Board of Regents, The University of Texas System, priority 2022, published 2025).
Converted amounts (≈) assume the structure as drawn.

Assays:
[1] = Geometric particle size distribution, HELOS laser diffraction with RODOS dispersion; type: physicochemical; settings: Avg.
Procedure: HELOS laser diffraction instrument (Sympatec Americas, Pennington, NJ) using the RODOS dispersion feature was used to assess the geometric particle size distribution of both the milled and unmilled powders. The particle size distribution was measured at different pressures from 0.5-3 bar to analyze the effect of dispersion pressure on particle deaggregation. Measurements that were between 5% and 25% optical density were averaged to determine particle size distribution.

[2] = True density, helium multipycnometer; type: physicochemical
Procedure: The true density of the processed powders was measured using a helium multipycnometer (Quantachrome Instruments, Boynton Beach, FL) with a micro-sample cell. The sample cell was filled to at least 75% of the total volume with milled or unmilled tigecycline powder. Using equation (1), the pressure of both the reference cell (P1) and sample cell (P2) was determined, and the true volume of the sample was calculated as follows:
For the micro-sample cell utilized, Vc was calibrated at 11.76156 cm^3 and VR=6.34216 cm^3. The sample weight was divided by the measured true volume to obtain the true density. Measurements were repeated until the standard deviation of ten consecutive true density measurements was less than 0.01 g/mL.

[3] = In vitro aerosol performance, Next Generation Impactor (NGI); type: physicochemical; settings: for Emitted Dose / Emitted Fraction / GSD / MMAD / RF (<5 μm): 4 kPa; for RF (<5 μm): percent of total dose
Procedure: The in vitro aerosol performance of the milled and unmilled powders was assessed using Next Generation Impactor (NGI) with a low and high resistance DPI (RS01 Monodose DPI (RS01 DPI; Plastiape). About 10 mg of the powder was added to size 3 hydroxypropyl methylcellulose (HPMC) capsules and the analysis was performed for a length of time sufficient to draw 4 L of air through the NGI, as per USP requirements. The pressure drop across the system was equivalent to either 4 kPa or 1 kPa. The flow rates required across the pressure drop to draw 4 L of air through the NGI, as per USP requirements, were 93 L/min for 4 kPa and 47.6 L/min for 1 kPa. The aerosol performance was compared between the low resistance device and the high resistance device. Also, the performance of the Plastiape devices was compared to that of Handihaler, a commercially used DPI. TIG deposited in each stage was dissolved in a buffer containing 0.015 M oxalic acid and 0.015 M sodium phosphate monobasic at pH 7 and quantified using a UV-Visible spectrophotometer (Tecan Systems, Inc., San Jose, CA, USA) at 245 nm. The aerodynamic particle size metrics that were calculated include emitted dose (ED), emitted fraction (EF), the respiratory fraction (RF), fine particle dose (FPD), fine particle fraction (FPF), mass median aerodynamic diameter (MMAD), and geometric standard deviation (GSD). […]

[4] = Water content by thermogravimetric analysis (TGA); type: physicochemical; settings: baseline
Procedure: The water content of the powders was assessed using thermogravimetric analysis (TGA). About 5 mg of powder was loaded into a 70 μL alumina crucible. The samples were heated from 35-350° C. at a rate of 10° C./min.
(§1) The milled powder was stored for 30 days at 25° C./60% RH and 45° C./75% RH, as specified by the International Council for Harmonization (ICH) intermediate and accelerated stability conditions using sealed amber vials. At the 30-day and 6 month time point, the powder was characterized for its physicochemical properties, stability, and aerosol performance. The results obtained from day 30 and 6 months were compared to baseline measurements to declare storage stability.

[5] = Water sorption by dynamic vapor sorption (DVS); type: physicochemical; settings: baseline
Procedure: Dynamic vapor sorption (DVS) analysis of the powders was performed using an Automated Water Sorption Analyzer (Surface Measurement Systems, London, UK). Briefly, 5-10 mg of milled and unmilled TIG powder was used as the sample. The samples were allowed to equilibrate under nitrogen until dm/dt<0.002%. Water sorption was analyzed as 10 steps from 0% relative humidity (RH) to 100% RH where step dm/dt was set at 0.075% at 10% increments in RH.
as §1

[6] = HPLC stability upon aerosolization and storage; type: physicochemical; settings: capsule (before aerosolization) and NGI stage 4 (after aerosolization) samples
Procedure: Stability upon aerosolization was assessed using High-Performance Liquid Chromatography (HPLC) by the method described by Lucelia Magalhaes da Silva and Herida Regina Nunes Salgado in Validation of a Stability-Indicating RP-LC Method for the Determination of Tigecycline in Lyophilized Powder, J. Chromatogr. Sci. 51:192-199 (2012). The powder accumulated on Stage 4 (after aerosolization), as well as the capsule (before aerosolization) after running the NGI, was dissolved in a buffer containing 0.015 M oxalic acid and 0.015 M sodium phosphate monobasic at pH 7. The mobile phase used was 75 (0.015 M oxalic acid and 0.015 M sodium phosphate monobasic at pH 7): 25 (Acetonitrile). The flow rate was kept at 1 mL/min and UV absorbance was measured at 245 nm. A forcefully degraded sample (tigecycline left in water for 1 week at RT without protection from light) was also incorporated as a control to assess the ability of the method to detect degradants.
as §1, with “The results obtained from day 30 and 6 months were compared to baseline measurements to declare storage stability.” left out

Calu-3 cells = assay: Cell viability, MTT assay; type: cell-based
Procedure: Calu-3 cells between passage 14-17 were grown in Dulbecco's Modified Eagle Medium (DMEM)+10% Fetal Bovine Serum (FBS)+1% Non-Essential Amino Acids (NEAA)+1% Penicillin Streptomycin (PS)+1% Sodium pyruvate in a 75 cm^2 flask. The media was changed every other day.
To assess the toxicity of the tigecycline powders, Calu-3 cells were seeded into 96-well tissue culture plates at a seeding density of 9000 cells/well. The cells were cultured overnight in media. […] The powders were dissolved in media and 100 μL of each concentration was added to the wells. Control wells containing only media were also set up. […] […] At 3 hours, MTT reagent/culture media was removed and 150 μl of MTT dissolving solvent was added to the well. The well-plate was wrapped in foil and kept on an electronic shaker for 15 minutes. The absorbance was then read at 590 nm using the Tecan microplate reader (Tecan Global Headquarters, Männedorf, Switzerland).

Calu-3 cell monolayer = assay: Drug permeability across air-liquid interface monolayer; type: in vitro ADME
Procedure: Calu-3 cells were plated at a cell density of 33,000 cells/well in 24-well transwell inserts on the apical side and 500 μL media was added to the basolateral side. 48 hours after plating the cells, the cells were airlifted (i.e the media from the apical and basolateral side was aspirated and only the basolateral side was replaced with media).
Cell integrity of the Calu-3 monolayer was measured every other day after airlifting. Briefly, the media from the basolateral side was aspirated. 200 μL of Hank's balanced salt solution (HBSS) buffer was added to the apical side and 500 μL of HBSS was added to the basolateral side. The transepithelial electrical resistance (TEER) was measured using an epithelial Voltohmmeter. The short electrode was dipped into the buffer on the apical side and the longer electrode was dipped into the buffer on the basolateral side. Using the measured value the TEER was calculated using equation (2): […]
The permeation experiments were carried out between days 5-7 after airlifting when the TEER values were ˜700Ω which indicates epithelial cell integrity and the absence of a leaky monolayer. The amount of drug transported across the cell layer were measured as follows: Milled and unmilled powders of tigecycline were dissolved in 200 μL of HBSS at a concentration of 10 μM and 20 μM. The media in the basolateral side was replaced by HBSS. 10 μL sample was collected from the basolateral side at the following intervals: 5 min, 15 min, 30 min, 45 min, 60 min, 2 hours, 4 hours, 6 hours, 8 hours, 12 hours, and 24 hours. After each aliquot, 10 μL of HBSS buffer was replaced into the basolateral chamber. This procedure was repeated to measure the permeability from the basolateral side to the apical side where samples were aliquoted from the apical side. The apparent permeability can be calculated as follows:
[formula] • Where • dQ/dt=Concentration flux • A=Surface area • Co=initial concentration

S. maltophilia [7] = assay: Minimum inhibitory concentration, OD 600; type: cell-based, Stenotrophomonas maltophilia
Procedure: (§2) Stenotrophomonas maltophilia was obtained from American Type Culture Collection (ATCC, Manassas, VA) (ATCC 13637). S. maltophilia dried pellet was reconstituted in nutrient broth and frozen until further use. An inoculation loop was used to collect S. maltophilia from the stock solution and was streaked onto nutrient agar plates. The plates were incubated at 37° C. for 24 hours. At the 24-hour point, an inoculation loop was used to transfer bacteria from the plate to 5 mL of liquid nutrient broth. The bacteria in the liquid medium were left overnight on a shaker at 37° C.
Liquid bacterial culture was prepared as described above. 200 μL of the overnight liquid culture was added to 96 well plates. Varying concentrations of TIG were added to the 96 well plates ranging from 0.12 μg/mL to 64 μg/mL. All TIG concentrations were tested in triplicate. The well plate was allowed to incubate at 37° C. for 24 hours, and the MIC was determined using the OD 600 values.

S. maltophilia biofilm = assay: Biofilm eradication (MBEC), XTT assay; type: cell-based, Stenotrophomonas maltophilia
Procedure: as §2
S. maltophilia was grown as described above. 200 μL of the bacteria in nutrient broth was added onto 96 well plates for varying amounts of time ranging from 1 day to 5 days. The bacterial biomass at each time point was assessed using crystal violet assay. Briefly, the liquid media was aspirated at each time point, and the wells were washed twice with 200 μL of phosphate-buffered saline (PBS). […] The bound dye was then solubilized in 33% v/v acetic acid, and the absorbance was measured at 595 nm. […]
200 μL of this standardized culture was added to 96 well plates and allowed to grow overnight at 37° C. […] At 24 hours, the viability of the bacteria was evaluated using the XTT assay. […] After 3 hours, the absorbance was measured at 490 nm.

Mycobacterium abscessus = assay: In vitro efficacy (MIC) against Mycobacterium abscessus; type: cell-based; settings: Mycobacteroides abscessus, Mab in Middlebrook 7H9 broth; read-out: minimal inhibitory concentration (MIC)
Procedure: Mab was cultured in Middlebrook 7H9 liquid broth for 48 hours. 100 μL of inoculum was then added to 96 well plate with 50 μL of different concentrations of Tigecycline (0.1 to 240 μg/mL) (FIG. 3).

S. maltophilia [8] = settings: cited from earlier work

SMILES: CN(C)c1cc(NC(=O)CNC(C)(C)C)c(O)c2c1C[C@H]1C[C@H]3[C@H](N(C)C)C(O)=C(C(N)=O)C(=O)[C@@]3(O)C(O)=C1C2=O [Unmilled tigecycline, tigecycline]
- Dv90 ([1]; dispersing pressure 0.5 bar): 18.38 μm
- Dv90 ([1]; dispersing pressure 1 bar): 16.29 μm
- Dv90 ([1]; dispersing pressure 2 bar): 10.79 μm
- Dv90 ([1]; dispersing pressure 3 bar): 9.49 μm
- Dv90 ([1]; dispersing pressure 3 bar, listed as unmilled powders): 9.48 μm
- True Density [2]: 1.282 ± 0.0004 g/mL
- Emitted Dose ([3]; Handihaler): 7.66 ± 5.11 mg
- Emitted Fraction ([3]; Handihaler): 64.60 ± 0.23%
- GSD ([3]; Handihaler): 1.13 ± 0.11
- MMAD ([3]; Handihaler): 8.27 ± 1.41 μm
- RF (<5 μm) ([3]; Handihaler): 16.44 ± 2.12%
- Emitted Dose ([3]; LR Plastiape): 8.48 ± 0.25 mg
- Emitted Fraction ([3]; LR Plastiape): 90.20 ± 0.27%
- GSD ([3]; LR Plastiape): 1.25 ± 0.01
- MMAD ([3]; LR Plastiape, listed as Unmilled): 5.73 ± 0.52 μm
- MMAD ([3]; LR Plastiape, listed as unmilled tigecycline): 5.73±0.52 μm
- RF (<5 μm) ([3]; LR Plastiape): 28.59 ± 1.56%
- emitted dose deposited in the capsule, device, throat and early NGI stages ([3]; pressure drop of 4 kPa): > 65%
- Fine Particle Dose (FPD) ([3]; pressure drop of 4 kPa, before storage): 2.57 ± 0.06 mg
- fine particle fraction (FPF) ([3]; pressure drop of 4 kPa, before storage, particles below 5 μm with respect to emitted dose): 31.70±1.83%
- Water content [4]: negligible
- hygroscopicity [5]: not hygroscopic

SMILES: CN(C)c1cc(NC(=O)CNC(C)(C)C)c(O)c2c1C[C@H]1C[C@H]3[C@H](N(C)C)C(O)=C(C(N)=O)C(=O)[C@@]3(O)C(O)=C1C2=O [Tigecycline, tigecycline]
- degradation peaks in HPLC chromatograms [6]: none of the degradation peaks were observed
- effect on Calu-3 cell viability (Calu-3 cells; 5 mM and 7.5 mM, 4-hour and 8-hour point): significant cell death
- concentration up to which Calu-3 cells were viable (Calu-3 cells; 4-hour and 8-hour point, submerged culture): 2500 µM
- maximum concentration that allowed the cells to maintain their viability (Calu-3 cells; 12-hour point): 125 µM
- maximum concentration that allowed the cells to maintain their viability (Calu-3 cells; 24 hours): 25 µM
- tigecycline permeated through the cell monolayer (Calu-3 cell monolayer; apical to basolateral, across a 12-hour time point, HPLC limit of detection 1 μM): less than 1 μM
- drug remaining in the apical (donor) side (Calu-3 cell monolayer; at the end of the experiment): ~100%
- permeability across the cell monolayer (Calu-3 cell monolayer; basolateral to apical direction): impermeability
- inhibition of growth of S. maltophilia (S. maltophilia [7]; 0.1 μg/mL and 0.25 μg/mL): failed to inhibit bacterial growth
- OD 600 value normalized to control (S. maltophilia [7]; 0.12 and 0.25 μg/mL): ~1
- MIC (S. maltophilia [7]; Stenotrophomonas maltophilia, 24 hours, OD 600, read-out: Minimum Inhibitory Concentrations (MIC)): 0.5 µg/mL (≈ 0.854 µM)
- OD 600 values versus control (S. maltophilia [7]; concentrations >0.5 μg/mL): significantly lower than that of control
- inhibition of growth of S. maltophilia (S. maltophilia [7]; concentrations equal to or greater than 0.5 μg/mL): completely
- inhibition of biofilm formation (S. maltophilia biofilm; concentrations above 0.5 μM, 24 hours): ~85%
- inhibition of S. maltophilia biofilm formation (S. maltophilia biofilm; concentrations lower than 0.5 μM): could not effectively inhibit
- MIC (Mycobacterium abscessus): > 4 µg/mL
- susceptibility of S. maltophilia (S. maltophilia [8]): more than 90%
